According to US20100137230A1, “NEW PYRIDIN-2-ONE COMPOUNDS” (priority 2007, published 2010):

Key:
Type in all cases: cell-based
[1] = tested on: panel of Gram positive and Gram negative bacteria; assay: in vitro screens against a panel of Gram positive and Gram negative bacteria
Description: (§1) All examples were tested against a panel of Gram positive and Gram negative bacteria. […] Typical MIC ranges […] are: S. aureus (MRSA) 0.06-2 (linezolid 1-2, ciprofloxacin 0.5-32) S. aureus (MSSA) 0.06-2 (linezolid 1-2, ciprofloxacin 0.125-1) E. faecalis 0.02-1 (linezolid 0.5-2, ciprofloxacin 0.5-32) E. faecium 0.02-1 (linezolid 1-2, ciprofloxacin 0.25-32) S. pneumoniae 0.02-1 (linezolid 0.125-1, ciprofloxacin 1-4) However, cleavage of saccharide modified compounds such as compounds from example 1 and 2 by esterases and glucosidases that occur in human plasma yields the corresponding antibiotically active compounds.

S. aureus (MRSA) = assay: MIC against panel of bacteria: S. aureus (MRSA)
Description: as §1

E. faecium = assay: MIC against panel of bacteria: E. faecium
Description: as §1

E. faecalis = assay: MIC against panel of bacteria: E. faecalis
Description: as §1

S. pneumoniae = assay: MIC against panel of bacteria: S. pneumoniae
Description: as §1

S. aureus (MSSA) = assay: MIC against panel of bacteria: S. aureus (MSSA)
Description: as §1

Typical MIC ranges (S. aureus (MRSA)) | Typical MIC ranges (E. faecium) | Typical MIC ranges (E. faecalis) | Typical MIC ranges (S. pneumoniae) | Typical MIC ranges (S. aureus (MSSA)) | SMILES | activity in the in vitro screens [1]
– | – | – | – | – | CC(=O)NC[C@H]1CN(c2ccc(OCC3(OC(=O)[C@H]4O[C@@H](O)[C@H](O)[C@@H](O)[C@@H]4O)CCN(c4c(F)cn5c(=O)c(C(=O)O)cc(C6CC6)c5c4C)CC3)c(F)c2)C(=O)O1 [Example 1, 8-[4-{4-[(S)-5-(Acetylamino-methyl)-2-oxo-oxazolidin-3-yl]-2-fluoro-phenoxymethyl}-4-((2S,3S,4S,5R,6R)-3,4,5,6-tetrahydroxy-tetrahydro-pyran-2-carbonyloxy)-piperidin-1-yl]-1-cyclopropyl-7-fluoro-9-methyl-4-oxo-4H-quinolizine-3-carboxylic acid] | inactive
– | – | – | – | – | CC(=O)NC[C@H]1CN(c2ccc(OCC3(OC(=O)[C@H](O)[C@@H](O)[C@H](O)[C@H](O)CO)CCN(c4c(F)cn5c(=O)c(C(=O)O)cc(C6CC6)c5c4C)CC3)c(F)c2)C(=O)O1 [Example 2, 8-[4-{4-[(S)-5-(Acetylamino-methyl)-2-oxo-oxazolidin-3-yl]-2-fluoro-phenoxymethyl}-4-((2R,3S,4R,5R)-2,3,4,5,6-pentahydroxy-hexanoyloxy)-piperidin-1-yl]-1-cyclopropyl-7-fluoro-9-methyl-4-oxo-4H-quinolizine-3-carboxylic acid] | inactive
0.5 to 32 µg/mL | 0.25 to 32 µg/mL | 0.5 to 32 µg/mL | 1 to 4 µg/mL | 0.125 to 1 µg/mL | O=C(O)c1cn(C2CC2)c2cc(N3CCNCC3)c(F)cc2c1=O [ciprofloxacin] | –
1 to 2 µg/mL | – | 0.5 to 2 µg/mL | 125 to 1000 µg/mL | – | CC(=O)NC[C@H]1CN(c2ccc(N3CCOCC3)c(F)c2)C(=O)O1 [linezolid] | –
